Measured values from patent US20240261258A1, “Presurgical Perineural Administration of Resiniferatoxin For Reduction of Post-Operative Pain” (Sorrento Therapeutics, Inc., priority 2021, published 2024).

System: healthy dogs undergoing TPLO surgery
Test: Clinical observations during RTX instillation under general anesthesia and recovery
Assay type: in vivo, dog
Text: This example provides safety data related to the tolerability of RTX administered as a nerve block pre-surgically and as a local application on the surgical site intraoperatively in healthy dogs undergoing tibial plateau levelling osteotomy (TPLO). Pharmacological behavior of RTX after a perineural injection and local application in the hindlimb and the long-term effects on bone healing was also observed.
Fourteen adult female beagle dogs, weighing 11.9±0.6 kg and between 3-5 years of age, were enrolled in this study. Each animal was randomly assigned to one of four groups. Four dogs (group 1) received a femoral and sciatic nerve block with 12.5 μg RTX per nerve (25 μg RTX total) diluted with sterile saline for a total volume of 2 mL (half volume per block). Another four dogs (group 2) received a femoral and a sciatic nerve block with 3.12 μg RTX per nerve block (6.25 μg RTX total) diluted with sterile saline for a total volume of 2 mL (half volume per block). Group 3 (4 animals) received a femoral and sciatic nerve block with 5 mg bupivacaine total (standard of care) plus a total of 50 μg RTX (total volume of 4 mL, concentration 12.5 μg/mL) applied locally to the cut on the tibia for 10 min. Group 4 (2 animals) was the control group and received a femoral and a sciatic nerve block with 5 mg bupivacaine total (standard of care).
Dogs were sedated and anesthetized using standard protocols and following the American College of Veterinary Analgesia and Anesthesia guidelines. A physical exam was performed prior to surgery and a complete blood count and chemistry profile were submitted. Food was withheld for 8-10 hours before surgery and offered again 4-6 hours after recovery from anesthesia.
Diphenhydramine (2.2 mg/kg) was given IM after induction. The peripheral IV catheter was used for administration of fluid (Lactate Ringer's solution (LRS) at 5 mL/kg/h), and intraoperative drugs when necessary (hydromorphone and/or ketamine and/or dexmedetomidine for analgesia, atropine in case of bradycardia, dopamine or dobutamine in case of hypotension). Cefazolin 22 mg/kg was administered intravenously prior to surgery and every 60-90 minutes during surgery.
Femoral and sciatic nerve blocks with RTX or bupivacaine were performed after induction of general anesthesia, and followed by surgery (TPLO). RTX was administered at least 15 minutes prior to any cut made to the bone. Dogs in group 3 received RTX during surgery via direct application on the bone.
At the end of surgery, animals were allowed to recover. Following extubation, animals were supervised until able to stand and walk steadily, then monitored for the first 4 hours following the procedure. Food and water were given at 4-6 hours if recovery was smooth and uneventful. All subjects received oral carprofen 2.2 mg/kg twice a day for 10 days and trazodone 5-7 mg/kg twice a day, until the end of the study.
Perineural injections (femoral and sciatic nerve block) of RTX were performed before surgery under general anesthesia and application of RTX over the bone incision was done during the surgical procedure. The nerve blocks were applied at after administration of anesthesia and least 15 minutes before surgery.
For the perineural injections, the animal was placed in right lateral recumbency and the lateral and medial aspects of proximal area of the left hindlimb were clipped and prepared using an aseptic technique. A caudal approach was used for the sciatic nerve block. The ultrasound transducer was placed over the lateral aspect of the biceps femoris, just distal to the greater trochanter and oriented craniocaudally. After obtaining a short axis view of the sciatic nerve, a sheathed needle for electrolocation was inserted caudally in-plane with the ultrasound transducer until the tip of the needle reached the nerve. The correct location of the needle was confirmed by a positive response (twitches of the leg) after activation of the nerve locator using a current of 0.3-0.5 mA. […]

## C=C(C)[C@]12C[C@@H](C)[C@@]34O[C@](Cc5ccccc5)(O[C@@H]1[C@@H]3C=C(COC(=O)Cc1ccc(O)c(OC)c1)C[C@]1(O)C(=O)C(C)=C[C@@H]41)O2 [RTX, resiniferatoxin]
Group 1 (4 dogs), after RTX administration
  Dogs that required dobutamine to treat hypotension: None
Group 2
  Dogs given dexmedetomidine IV to treat dysphoria immediately after extubation: one
  Dogs given naloxone IV due to prolonged recovery: One
Group 2 (4 dogs), after RTX administration
  Dogs that required dobutamine to treat hypotension: one
Group 3
  Dogs given dexmedetomidine IV to treat dysphoria immediately after extubation: one
Group 3 (4 dogs)
  Dogs that required dobutamine to treat hypotension: two
Subject 2968 (group 1), from 60 mmHg, 100 minutes after RTX, leg stretched during aseptic preparation
  Mean blood pressure after increase: 172 mmHg
Subject 2968 (group 1), from 90 bpm, 100 minutes after RTX, leg stretched during aseptic preparation
  Heart rate after increase: 168 bpm
All RTX treatments: nerve block 6.25 μg and 25 μg total, local gauze loaded with 50 μg
  Tolerability: well tolerated
Approximately 15 to 25 minutes after RTX administration, group 1 and 2 subjects
  Change in heart rate and blood pressure: mild to moderate increase
Dogs in group 1 and 2
  Respiratory observation after extubation: polypnea
Dogs in group 1 and 2, after extubation
  Body temperature to which dogs decreased before polypnea ended: 94-95 ° F
Some dogs of groups 1 and 2, clinically acted normally
  Duration of decrease in body temperature after the treatment: up to 3 days
Three subjects of group 1 (0271, 2968, 5635), without any clinical signs
  Persistence of hypothermia: over 24 hours
